From ChEMBL document CHEMBL1146807, “A new family of quinoline and quinoxaline analogues of combretastatins” (Bioorg Med Chem Lett, 2004)
Active and inactive are the calls of the source. The rule behind the calls is not given here.

Experiments:
HT-29 = experiment: Cytotoxic activity against HT-29 cell line; type: functional, cell-based; conditions: Homo sapiens
P388 = experiment: Cytotoxic activity against P-388 cell line; type: functional, cell-based; conditions: Mus musculus
HCT-116 = experiment: Cytotoxic activity against H116 cell line; type: functional, cell-based; conditions: Homo sapiens
SK-MEL-28 = experiment: Cytotoxic activity against MEL-28 cell line; type: functional, cell-based; conditions: Homo sapiens
A549 = experiment: Cytotoxic activity against A-549 cell line; type: functional, cell-based; conditions: Homo sapiens
[1] = Compound tested for inhibition of tubulin polymerization at 60 uM; No inhibition; type: functional
[2] = Compound tested for inhibition of tubulin polymerization; type: functional

Structure (SMILES) | IC50 (HT-29) [nM] | IC50 (P388) [nM] | IC50 (HCT-116) [nM] | IC50 (SK-MEL-28) [nM] | IC50 (A549) [nM] | inhibition [1] | IC50 [2] [nM]
COc1cc(/C=C\c2ccc3ncccc3c2)cc(OC)c1OC | 31.6 | 31.6 | 31.6 | 31.6 | 31.6 |  | 
COc1cc(/C=C/c2cnc3ccccc3c2)cc(OC)c1OC | > 3160 | > 3160 | > 3160 | > 3160 | > 3160 |  | 
COc1cc(/C=C/c2ccc3ccccc3n2)cc(OC)c1OC | 398 | 398 | 398 | 398 | 398 |  | 
COc1cc(/C=C\c2ccc3nc(C)c(C)nc3c2)cc(OC)c1OC | > 15800 | > 15800 | > 15800 | > 15800 | > 15800 | inactive | 
COc1cc(/C=C\c2ccnc3ccccc23)cc(OC)c1OC | 15800 | 7940 | 7940 | 7940 | 7940 |  | 
COc1cc(/C=C/c2ccc3cccnc3c2)cc(OC)c1OC | 1580 | 1580 | 1580 | 1580 | 1580 |  | 
COc1cc(/C=C\c2ccc3cccnc3c2)cc(OC)c1OC | 158 | 158 | 158 | 158 | 158 |  | 20000
COc1cc(/C=C\c2ccc3ccccc3c2)cc(OC)c1OC [NAPHTHYLCOMBRETASTATIN] |  |  | 15.8 |  |  |  | 
COc1cc(/C=C\c2cnc3ccccc3c2)cc(OC)c1OC | 398 | 398 | 398 | 398 | 398 |  | 
COc1cc(/C=C\c2ccc3nccnc3c2)cc(OC)c1OC | 7940 | 7940 | 7940 | 7940 | 7940 | inactive | 
COc1cc(/C=C/c2ccc3nccnc3c2)cc(OC)c1OC | > 15800 | > 15800 | > 15800 | > 15800 | > 15800 |  | 
COc1cc(/C=C\c2ccc3ccccc3n2)cc(OC)c1OC | 316 | 316 | 316 | 316 | 316 |  | 
COc1cc(/C=C/c2ccc3nc(C)c(C)nc3c2)cc(OC)c1OC | > 15800 | > 15800 | > 15800 | > 15800 | > 15800 |  | 
COc1ccc(/C=C\c2cc(OC)c(OC)c(OC)c2)cc1O [COMBRETASTATIN A4] |  |  | 3.16 |  |  |  | 
